Source: patent publication US20240174618A1, “SUBSTITUTED (2-HETEROARYLOXYPHENYL)SULFONATES, SALTS THEREOF AND THEIR USE AS HERBICIDAL AGENTS” (Bayer Aktiengesellschaft, priority 2021, published 2024)

What was measured:
Type in all cases: in vivo
Veronica persica (VERPE) [1] = test: C. Herbicidal pre-emergence efficacy, VERPE; conditions: scored after about 3 weeks
In short: (§1)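 Pre-emergence test: formulated compounds sprayed as aqueous suspension or emulsion with 0.5% additive at 600 l/ha onto soil covering sown seeds, at rates corresponding to 320 g/ha or less. After about 3 weeks in greenhouse, efficacy scored visually as percent versus untreated controls (100% = plants dead).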

Viola tricolor (VIOTR) = test: E. Herbicidal post-emergence efficacy, VIOTR
In short: (§2)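 Visual scoring against untreated plants was done roughly 3 weeks after spraying (0% = no effect, 100% = plants dead). Spray application at 320 g/ha or lower, 600 l/ha water with 0.5% additive, was made onto green parts of one-leaf-stage greenhouse plants grown 2-3 weeks in sandy loam.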

Veronica persica (VERPE) [2] = test: A. Herbicidal pre-emergence efficacy, VERPE; conditions: for Pre-emergence efficacy against VERPE: dosage 80 g/ha
In short: (§3)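 Applied before emergence onto covering soil at rates of 1280 g/ha or less, using 600 L/ha spray water with 0.5% additive. Scoring: visual % efficacy after ~3 weeks, greenhouse.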

[3] = system: Abutilon theophrasti (ABUTH); test: A. Herbicidal pre-emergence efficacy, ABUTH; conditions: scored visually after about 3 weeks vs untreated controls
In short: as §3

Kochia scoparia (KCHSC) = test: A. Herbicidal pre-emergence efficacy, KCHSC
In short: as §3

[4] = system: Echinochloa crus-galli (ECHCG); test: E. Herbicidal post-emergence efficacy, ECHCG
In short: as §2

Setaria viridis (SETVI) = test: B. Herbicidal post-emergence efficacy, SETVI
In short: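 Post-emergence greenhouse test: one-leaf-stage plants, compound (WP/EC, +0.5% additive, 600 L/ha water, ≤1280 g/ha) applied to green parts; % efficacy scored visually vs untreated after ~3 wk; 100% = plants died.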

[5] = system: Alopecurus myosuroides (ALOMY); test: C. Herbicidal pre-emergence efficacy, ALOMY; conditions: scored after about 3 weeks
In short: as §1

[6] = 80 g/ha, scored visually after about 3 weeks vs untreated controls
[7] = pre-emergence, dosage 1280 g/ha

| SMILES | Pre-emergence efficacy against VERPE (Veronica persica (VERPE) [1]; 80 g/ha) [%] | Pre-emergence efficacy against VERPE (Veronica persica (VERPE) [1]; 320 g/ha) [%] | Post-emergence efficacy against VIOTR in % (Viola tricolor (VIOTR); application rate 80 g/ha) [%] | Post-emergence efficacy against VIOTR in % (Viola tricolor (VIOTR); application rate 320 g/ha) [%] | Pre-emergence efficacy against VERPE in % (Veronica persica (VERPE) [2]; 320 g/ha) [%] | Pre-emergence efficacy against VERPE in % (Veronica persica (VERPE) [2]; 1280 g/ha) [%] | Pre-emergence efficacy against VERPE (Veronica persica (VERPE) [2]) [%] | Pre-emergence efficacy against ABUTH ([3]; 80 g/ha) [%] | Pre-emergence efficacy against ABUTH ([3]; 320 g/ha) [%] | Pre-emergence efficacy against ABUTH ([3]; 1280 g/ha) [%] | Pre-emergence efficacy against KCHSC (Kochia scoparia (KCHSC); [6]) [%] | Pre-emergence efficacy against KCHSC (Kochia scoparia (KCHSC); pre-emergence, dosage 320 g/ha) [%] | Pre-emergence efficacy against KCHSC (Kochia scoparia (KCHSC); [7]) [%] | Post-emergence efficacy against ECHCG in % ([4]; application rate 80 g/ha) [%] | Post-emergence efficacy against ECHCG in % ([4]; application rate 320 g/ha) [%] | Post-emergence efficacy against SETVI (Setaria viridis (SETVI); 320 g/ha) [%] | Post-emergence efficacy against SETVI (Setaria viridis (SETVI); 1280 g/ha) [%] | Pre-emergence efficacy against ALOMY ([5]; 80 g/ha) [%] | Pre-emergence efficacy against ALOMY ([5]; 320 g/ha) [%] |
| --- | --- | --- | --- | --- | --- | --- | --- | --- | --- | --- | --- | --- | --- | --- | --- | --- | --- | --- | --- |
| O=S(=O)(CCCCl)Oc1ccccc1Oc1ncc(F)cn1 [Example I-5] | 100 | 100 | 80 | 90 | 100 | 100 | 90 | 100 | 100 | 100 | 100 | 100 | 100 | 80 | 100 | 90 | 100 | 90 | 100 |
| CCCCS(=O)(=O)Oc1ccccc1Oc1ncc(Cl)cn1 [Example I-6] | 80 | 90 | 80 | 90 | – | 90 | – | 100 | 100 | 100 | 90 | 90 | 100 | 90 | 100 | – | 90 | 80 | 90 |
| CC(C)CS(=O)(=O)Oc1ccccc1Oc1ncc(Cl)cn1 [Example I-7, [2-(5-Chloropyrimidin-2-yl)oxyphenyl] 2-methylpropane-1-sulfonate] | 90 | 100 | – | 90 | – | 100 | – | – | 90 | 100 | 90 | 100 | 100 | 80 | 100 | – | 90 | 90 | 100 |
| O=S(=O)(CCC(F)(F)F)Oc1ccccc1Oc1ncc(Cl)cn1 [Example I-8] | 100 | 100 | 80 | 100 | 100 | 100 | 100 | 90 | 90 | 100 | 100 | 100 | 100 | 90 | 90 | 90 | 90 | 90 | 100 |
| O=S(=O)(CCCC(F)(F)F)Oc1ccccc1Oc1ncc(Cl)cn1 [Example I-10] | 100 | 100 | 90 | 100 | 100 | 100 | 90 | 100 | 100 | 100 | 100 | 100 | 100 | 90 | 90 | 100 | 100 | 100 | 100 |
| O=S(=O)(CCCCl)Oc1c(F)cccc1Oc1ncc(Cl)cn1 [Example I-14] | 100 | 100 | 90 | 90 | 100 | 100 | 100 | 100 | 100 | 100 | 100 | 100 | 100 | 90 | 100 | 90 | 100 | 90 | 100 |
| O=S(=O)(CCCCCl)Oc1ccccc1Oc1ncc(Cl)cn1 [Example I-15] | – | 80 | 90 | 100 | 90 | 90 | – | 100 | 100 | 100 | 100 | 100 | 100 | – | 80 | – | 100 | – | 90 |
| O=S(=O)(CC1CC1)Oc1ccccc1Oc1ncc(Cl)cn1 [Example I-23] | 100 | 100 | 100 | 100 | 100 | 100 | 90 | 90 | 90 | 100 | 90 | 100 | 100 | – | 100 | – | 100 | 80 | 100 |
| O=S(=O)(CCC(F)(F)F)Oc1c(Cl)cccc1Oc1ncc(Br)cn1 [Example I-32] | 80 | 100 | 100 | 100 | 90 | 100 | 90 | – | 90 | 100 | – | 90 | 100 | – | 90 | 90 | 100 | – | 100 |
| O=S(=O)(CCCC(F)(F)F)Oc1c(Cl)cccc1Oc1ncc(Br)cn1 [Example I-34] | 80 | 100 | 100 | 100 | 90 | 100 | – | – | – | 90 | – | – | 90 | – | 90 | – | 90 | – | 80 |
